Test results: patent US6737383B1, “Herbicidal oxadiazolidines” (priority 1999, dated 2004)

Legend:
morningglory = experiment: Test B pre/postemergence morningglory; assay type: in vivo, Ipomoea hederacea
Summary of the method: (§1)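 Response is a visual 0-to-10 score relative to untreated plants, where 0 means no effect and 10 means complete control, taken twelve to sixteen days after application. Treatments went onto soil at planting and onto foliage of 1- to 4-leaf plants, using a surfactant-containing non-phytotoxic solvent.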

purple nutsedge = experiment: Test B pre/postemergence purple nutsedge; assay type: in vivo, Cyperus rotundus
Summary of the method: as §1

giant foxtail = experiment: Test B pre/postemergence giant foxtail; assay type: in vivo, Setaria faberii
Summary of the method: as §1

sugar beet = experiment: Test B pre/postemergence sugar beet; assay type: in vivo, Beta vulgaris
Summary of the method: as §1

duck salad = experiment: Test B flood test duck salad; assay type: in vivo, Heteranthera limosa
Summary of the method: (§2)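 Plants were grown to the 2-leaf stage before treatment with test chemical, then held in a greenhouse for twelve to sixteen days. Injury was visually rated against untreated controls on a 0–10 scale, where 0 is no effect and 10 is complete control.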

wild oat = experiment: Test B pre/postemergence wild oat; assay type: in vivo, Avena fatua
Summary of the method: as §1

pigweed = experiment: Test B pre/postemergence pigweed; assay type: in vivo, Amaranthus retroflexus
Summary of the method: as §1

bamyardgrass = experiment: Test B flood test barnyardgrass; assay type: in vivo, Echinochloa crus-galli
Summary of the method: as §2

soybean = experiment: Test B pre/postemergence soybean; assay type: in vivo, Glycine max
Summary of the method: as §1

wheat = experiment: Test B pre/postemergence wheat; assay type: in vivo, Triticum aestivum
Summary of the method: as §1

bedstraw = experiment: Test B pre/postemergence bedstraw; assay type: in vivo, Galium aparine
Summary of the method: as §1

rape = experiment: Test B pre/postemergence rape; assay type: in vivo, Brassica napus
Summary of the method: as §1

blackgrass = experiment: Test B pre/postemergence blackgrass; assay type: in vivo, Alopecurus myosuroides
Summary of the method: as §1

cocklebur = experiment: Test B pre/postemergence cocklebur; assay type: in vivo, Xanthium strumarium
Summary of the method: as §1

smallflower flatsedge = experiment: Test B flood test smallflower flatsedge; assay type: in vivo, Cyperus difformis
Summary of the method: as §2

surinam grass = experiment: Test B pre/postemergence surinam grass; assay type: in vivo, Brachiaria decumbens
Summary of the method: as §1

[1] = Postemergence, Rate 62 g/ha, scale 0 to 10, 0 is no effect, 10 is complete control
[2] = Postemergence, Rate 125 g/ha, scale of 0 to 10 where 0 is no effect and 10 is complete control
[3] = Postemergence, Rate 250 g/ha, scale of 0 to 10, 0 is no effect, 10 is complete control
[4] = Postemergence, Rate 500 g/ha, scale of 0 to 10 where 0 is no effect and 10 is complete control
[5] = Preemergence, Rate 62 g/ha, scale 0 to 10 (0 no effect, 10 complete control)
[6] = Preemergence, Rate 125 g/ha, scale of 0 to 10 where 0 is no effect and 10 is complete control
[7] = Preemergence, Rate 500 g/ha, scale of 0 to 10 where 0 is no effect and 10 is complete control
[8] = Rate 62 g/ha, flood test species, Pre-emergence, visual evaluation after twelve to sixteen days
[9] = Rate 125 g/ha, under heading Pre-emergence, flood test species, visual evaluation after twelve to sixteen days
[10] = Rate 250 g/ha, Pre-emergence (flood test species), scale 0 to 10, 0 is no effect, 10 is complete control
[11] = Rate 500 g/ha, Pre-emergence section of Table B, 0 to 10 scale (0 no effect, 10 complete control)

Structure (SMILES): CCC(C)n1c(=O)on(C(=O)N(c2ccccc2)C(C)C)c1=O (centres unmarked) [Compound 611]
- Plant response rating, Morningglory (morningglory; [1]): 7
- Plant response rating, Morningglory (morningglory; [2]): 8
- Morningglory plant response rating (morningglory; [3]): 8
- Plant response rating, Morningglory (morningglory; [4]): 8
- Morningglory plant response rating (morningglory; [5]): 0
- Morningglory plant response rating (morningglory; [6]): 0
- Plant response rating, Morningglory (morningglory; [7]): 6
- Plant response rating, Nutsedge (purple nutsedge; [1]): 0
- Plant response rating, Nutsedge (purple nutsedge; [2]): 0
- Nutsedge plant response rating (purple nutsedge; [3]): 3
- Plant response rating, Nutsedge (purple nutsedge; [4]): 3
- Nutsedge plant response rating (purple nutsedge; [5]): 0
- Nutsedge plant response rating (purple nutsedge; [6]): 0
- Plant response rating, Nutsedge (purple nutsedge; [7]): 2
- Plant response rating, Giant foxtail (giant foxtail; [1]): 8
- Plant response rating, Giant foxtail (giant foxtail; [2]): 8
- Giant foxtail plant response rating (giant foxtail; [3]): 9
- Plant response rating, Giant foxtail (giant foxtail; [4]): 9
- Giant foxtail plant response rating (giant foxtail; [5]): 10
- Giant foxtail plant response rating (giant foxtail; [6]): 10
- Plant response rating, Giant foxtail (giant foxtail; [7]): 10
- Plant response rating, Sugarbeets (sugar beet; [1]): 0
- Plant response rating, Sugarbeets (sugar beet; [2]): 0
- Sugarbeets plant response rating (sugar beet; [3]): 0
- Plant response rating, Sugarbeets (sugar beet; [4]): 2
- Sugarbeets plant response rating (sugar beet; [5]): 2
- Sugarbeets plant response rating (sugar beet; [6]): 2
- Plant response rating, Sugarbeets (sugar beet; [7]): 6
- Plant response rating, Ducksalad (0 to 10 scale, 0 is no effect, 10 is complete control) (duck salad; [8]): 0
- Ducksalad plant response rating (0 to 10 scale, 0 is no effect, 10 is complete control) (duck salad; [9]): 0
- Ducksalad plant response rating (duck salad; [10]): 0
- Ducksalad plant response rating (duck salad; [11]): 1
- Plant response rating, Wild oats (wild oat; [1]): 0
- Plant response rating, Wild oats (wild oat; [2]): 2
- Wild oats plant response rating (wild oat; [3]): 4
- Plant response rating, Wild oats (wild oat; [4]): 7
- Wild oats plant response rating (wild oat; [5]): 5
- Wild oats plant response rating (wild oat; [6]): 7
- Plant response rating, Wild oats (wild oat; [7]): 8
- Plant response rating, Redroot pigweed (pigweed; [1]): 0
- Plant response rating, Redroot pigweed (pigweed; [2]): 2
- Redroot pigweed plant response rating (pigweed; [3]): 3
- Plant response rating, Redroot pigweed (pigweed; [4]): 8
- Redroot pigweed plant response rating (pigweed; [5]): 6
- Redroot pigweed plant response rating (pigweed; [6]): 8
- Plant response rating, Redroot pigweed (pigweed; [7]): 10
- Plant response rating, Barnyardgrass (0 to 10 scale, 0 is no effect, 10 is complete control) (bamyardgrass; [8]): 0
- Barnyardgrass plant response rating (0 to 10 scale, 0 is no effect, 10 is complete control) (bamyardgrass; [9]): 0
- Barnyardgrass plant response rating (bamyardgrass; [10]): 0
- Barnyardgrass plant response rating (bamyardgrass; [11]): 5
- Plant response rating, Soybean (soybean; [1]): 5
- Plant response rating, Soybean (soybean; [2]): 7
- Soybean plant response rating (soybean; [3]): 8
- Plant response rating, Soybean (soybean; [4]): 8
- Soybean plant response rating (soybean; [5]): 2
- Soybean plant response rating (soybean; [6]): 2
- Plant response rating, Soybean (soybean; [7]): 7
- Plant response rating, Wheat (wheat; [1]): 0
- Plant response rating, Wheat (wheat; [2]): 0
- Wheat plant response rating (wheat; [3]): 2
- Plant response rating, Wheat (wheat; [4]): 8
- Wheat plant response rating (wheat; [5]): 1
- Wheat plant response rating (wheat; [6]): 3
- Plant response rating, Wheat (wheat; [7]): 7
- Bedstraw plant response rating (bedstraw; [3]): 6
- Plant response rating, Bedstraw (bedstraw; [4]): 9
- Bedstraw plant response rating (bedstraw; [5]): 1
- Bedstraw plant response rating (bedstraw; [6]): 1
- Bedstraw plant response rating (bedstraw; [7]): 10
- Plant response rating, Rape (rape; [1]): 0
- Plant response rating, Rape (rape; [2]): 0
- Rape plant response rating (rape; [3]): 2
- Plant response rating, Rape (rape; [4]): 3
- Rape plant response rating (rape; [5]): 3
- Rape plant response rating (rape; [6]): 3
- Plant response rating, Rape (rape; [7]): 10
- Plant response rating, Blackgrass (blackgrass; [1]): 7
- Plant response rating, Blackgrass (blackgrass; [2]): 9
- Blackgrass plant response rating (blackgrass; [3]): 9
- Plant response rating, Blackgrass (blackgrass; [4]): 9
- Blackgrass plant response rating (blackgrass; [5]): 9
- Blackgrass plant response rating (blackgrass; [6]): 9
- Blackgrass plant response rating (0 to 10 scale) (blackgrass; Preemergence, Rate 250 g/ha): 10
- Blackgrass plant response rating (blackgrass; [7]): 10
- Plant response rating, Cocklebur (cocklebur; [1]): 0
- Plant response rating, Cocklebur (cocklebur; [2]): 2
- Cocklebur plant response rating (cocklebur; [3]): 2
- Plant response rating, Cocklebur (cocklebur; [4]): 3
- Cocklebur plant response rating (cocklebur; [5]): 0
- Cocklebur plant response rating (cocklebur; [6]): 0
- Cocklebur plant response rating (0 to 10 scale) (cocklebur; Preemergence, Rate 250 g/ha): 0
- Plant response rating, Cocklebur (cocklebur; [7]): 1
- Plant response rating, S. Flatsedge (0 to 10 scale, 0 is no effect, 10 is complete control) (smallflower flatsedge; [8]): 0
- S. Flatsedge plant response rating (0 to 10 scale, 0 is no effect, 10 is complete control) (smallflower flatsedge; [9]): 0
- S. Flatsedge plant response rating (smallflower flatsedge; [10]): 0
- S. Flatsedge plant response rating (smallflower flatsedge; [11]): 0
- Plant response rating, B. signalgrass (surinam grass; [1]): 0
- Plant response rating, B. signalgrass (surinam grass; [2]): 3
- B. signalgrass plant response rating (surinam grass; [3]): 7
- Plant response rating, B. signalgrass (surinam grass; [4]): 8
- B. signalgrass plant response rating (surinam grass; [5]): 7
- B. signalgrass plant response rating (surinam grass; [6]): 7
- B. signalgrass plant response rating (0 to 10 scale, 0 is no effect, 10 is complete control) (surinam grass; Preemergence, Rate 250 g/ha): 10
- B. signalgrass plant response rating (surinam grass; [7]): 10
